# Assay results taken from article PMC7803973, “Structural basis of malaria parasite phenylalanine tRNA-synthetase inhibition by bicyclic azetidines” (Nature Communications, 2021).
# Assays:
# Assay in all cases: Malachite green aminoacylation enzyme inhibition assay
# Type in all cases: biochemical
# [1] = target: PfcFRS mutant (L550V) (Plasmodium falciparum, UniProt Q8I246, L550V)
# Protocol: (§1) These were done using malachite green assay as per earlier published reports[1],[6]. Briefly, the reaction was performed for 100 µM ATP, 50 µM L-phenylalanine and 100 nM recombinant PheRS enzymes (Pf, Pv, Hs, Pf mutant (L550V)) in a buffer containing 30 mM HEPES (pH 7.5), 150 mM, NaCl, 30 mM KCl, 50 mM, MgCl2, 1 mM DTT, and 2 U/ml E. coli inorganic pyrophosphatase (NEB) at 37 °C. Enzymatic reactions (50 μl total volume) were performed in clear, flat-bottomed, 96-well plates (Costar 96-well standard microplates). The reaction mixture was incubated for 2 h at 37 °C. The reaction was stopped by adding 12.5 μl of malachite green solution to the reaction mixture and levels of inorganic phosphate (Pi) were detected after incubation of 5 min at room temperature. Absorbance was the measured at 620 nm using a Spectramax M2 (Molecular Devices). Reactions without FRS enzyme were performed as background controls, values of which were subtracted from the reactions with enzyme. BRD1389 was added to our aminoacylation assay reaction buffer in varying concentrations ranging from 0.1 nM to 10,000 nM. The IC50 value for the data is shown for three replicates as the mean ± SD.
# [2] = target: T1, PvcFRS (Plasmodium vivax, UniProt A5K9S0)
# T1 construct: Full-length PvcFRS was also purified according to the same protocol; vector-encoded tag of pETM11 (own knowledge: N-terminal His6 with TEV site); Ni-NTA purification; made in house; host or cells: E. coli strain B834
# T1 sequence (A5K464 whole entry): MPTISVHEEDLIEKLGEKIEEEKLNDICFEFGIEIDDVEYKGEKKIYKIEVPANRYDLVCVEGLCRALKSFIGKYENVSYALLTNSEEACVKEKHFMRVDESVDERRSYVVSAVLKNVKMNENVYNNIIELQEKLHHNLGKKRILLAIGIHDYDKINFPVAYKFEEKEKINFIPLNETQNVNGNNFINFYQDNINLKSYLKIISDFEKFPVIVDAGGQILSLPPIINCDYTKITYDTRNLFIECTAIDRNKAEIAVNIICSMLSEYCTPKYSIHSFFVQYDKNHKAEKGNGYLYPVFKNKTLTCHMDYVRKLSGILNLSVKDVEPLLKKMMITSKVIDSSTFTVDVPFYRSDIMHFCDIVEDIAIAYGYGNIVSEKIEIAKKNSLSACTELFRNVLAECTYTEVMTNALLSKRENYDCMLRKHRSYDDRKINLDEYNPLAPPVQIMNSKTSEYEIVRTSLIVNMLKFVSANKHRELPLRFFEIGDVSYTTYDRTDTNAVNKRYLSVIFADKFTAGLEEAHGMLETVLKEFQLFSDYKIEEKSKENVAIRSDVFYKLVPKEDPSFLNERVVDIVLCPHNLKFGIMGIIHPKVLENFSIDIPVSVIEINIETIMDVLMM
# T1 sequence (A5K9S0 whole entry): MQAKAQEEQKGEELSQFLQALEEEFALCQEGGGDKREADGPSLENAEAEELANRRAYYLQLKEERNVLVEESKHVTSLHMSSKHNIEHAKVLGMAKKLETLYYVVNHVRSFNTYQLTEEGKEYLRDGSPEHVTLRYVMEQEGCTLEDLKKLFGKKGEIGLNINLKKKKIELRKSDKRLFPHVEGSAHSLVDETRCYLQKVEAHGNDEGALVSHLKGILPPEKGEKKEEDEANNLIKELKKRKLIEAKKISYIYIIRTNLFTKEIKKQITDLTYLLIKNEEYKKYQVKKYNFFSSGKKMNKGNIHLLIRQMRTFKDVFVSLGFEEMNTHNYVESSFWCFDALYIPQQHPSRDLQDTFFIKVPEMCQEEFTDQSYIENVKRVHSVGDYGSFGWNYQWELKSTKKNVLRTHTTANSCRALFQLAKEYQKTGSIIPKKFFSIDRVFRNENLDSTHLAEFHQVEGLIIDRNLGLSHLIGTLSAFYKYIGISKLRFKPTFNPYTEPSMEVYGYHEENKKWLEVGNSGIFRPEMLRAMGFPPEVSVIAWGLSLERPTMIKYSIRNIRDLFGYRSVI
# Protocol: as §1
# [3] = target: HscFRS (Homo sapiens, UniProt Q9Y285)
# Sequence of HscFRS (Q9NSD9 whole entry): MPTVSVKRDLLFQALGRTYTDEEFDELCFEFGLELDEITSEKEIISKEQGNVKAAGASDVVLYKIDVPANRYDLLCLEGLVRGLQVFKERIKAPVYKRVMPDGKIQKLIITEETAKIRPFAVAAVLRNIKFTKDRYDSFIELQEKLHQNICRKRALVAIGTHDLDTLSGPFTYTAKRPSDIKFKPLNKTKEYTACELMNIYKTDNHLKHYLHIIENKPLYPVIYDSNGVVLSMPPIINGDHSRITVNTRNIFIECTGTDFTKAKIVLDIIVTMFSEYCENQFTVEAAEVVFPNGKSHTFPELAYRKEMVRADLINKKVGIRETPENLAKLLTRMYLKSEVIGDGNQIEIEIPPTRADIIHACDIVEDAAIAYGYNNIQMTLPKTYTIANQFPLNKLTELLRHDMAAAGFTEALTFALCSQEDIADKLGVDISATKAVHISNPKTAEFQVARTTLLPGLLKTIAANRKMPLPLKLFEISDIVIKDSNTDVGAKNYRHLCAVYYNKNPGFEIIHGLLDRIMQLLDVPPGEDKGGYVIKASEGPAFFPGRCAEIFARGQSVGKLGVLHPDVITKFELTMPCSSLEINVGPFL
# Sequence of HscFRS (Q9Y285 whole entry): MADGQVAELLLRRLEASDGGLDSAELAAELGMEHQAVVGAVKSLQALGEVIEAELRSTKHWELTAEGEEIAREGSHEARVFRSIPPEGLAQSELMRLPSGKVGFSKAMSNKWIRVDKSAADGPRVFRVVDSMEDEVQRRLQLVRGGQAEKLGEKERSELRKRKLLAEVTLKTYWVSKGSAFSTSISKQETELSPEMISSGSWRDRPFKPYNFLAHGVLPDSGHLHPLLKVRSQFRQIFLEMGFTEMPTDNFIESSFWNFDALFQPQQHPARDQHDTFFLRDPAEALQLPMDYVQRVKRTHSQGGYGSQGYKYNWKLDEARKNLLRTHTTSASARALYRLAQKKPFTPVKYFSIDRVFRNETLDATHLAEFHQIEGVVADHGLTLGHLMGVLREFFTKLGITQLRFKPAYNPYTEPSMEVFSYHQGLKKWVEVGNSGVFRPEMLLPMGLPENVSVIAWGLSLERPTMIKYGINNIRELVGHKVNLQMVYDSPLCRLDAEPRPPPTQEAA
# Protocol: as §1
# [4] = target: T2, PfcFRS (Plasmodium falciparum, UniProt Q8I246)
# T2 sequence (Q8I246 1-575): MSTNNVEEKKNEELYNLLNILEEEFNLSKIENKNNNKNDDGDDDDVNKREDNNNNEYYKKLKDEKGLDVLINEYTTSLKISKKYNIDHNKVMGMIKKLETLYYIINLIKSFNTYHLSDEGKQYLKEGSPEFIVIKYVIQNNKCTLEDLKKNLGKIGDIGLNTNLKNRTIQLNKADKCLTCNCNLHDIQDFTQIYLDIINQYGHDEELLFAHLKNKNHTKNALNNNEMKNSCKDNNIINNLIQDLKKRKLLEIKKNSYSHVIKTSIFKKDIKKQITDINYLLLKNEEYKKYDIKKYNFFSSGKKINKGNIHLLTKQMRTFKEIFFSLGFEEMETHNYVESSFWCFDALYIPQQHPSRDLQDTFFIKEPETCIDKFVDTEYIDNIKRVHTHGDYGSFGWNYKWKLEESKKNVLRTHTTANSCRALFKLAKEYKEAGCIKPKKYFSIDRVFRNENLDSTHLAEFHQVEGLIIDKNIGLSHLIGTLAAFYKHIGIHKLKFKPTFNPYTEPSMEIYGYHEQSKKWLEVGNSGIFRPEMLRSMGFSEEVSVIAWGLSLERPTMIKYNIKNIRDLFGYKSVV
# T2 sequence (Q8IIW2 1-623 partner): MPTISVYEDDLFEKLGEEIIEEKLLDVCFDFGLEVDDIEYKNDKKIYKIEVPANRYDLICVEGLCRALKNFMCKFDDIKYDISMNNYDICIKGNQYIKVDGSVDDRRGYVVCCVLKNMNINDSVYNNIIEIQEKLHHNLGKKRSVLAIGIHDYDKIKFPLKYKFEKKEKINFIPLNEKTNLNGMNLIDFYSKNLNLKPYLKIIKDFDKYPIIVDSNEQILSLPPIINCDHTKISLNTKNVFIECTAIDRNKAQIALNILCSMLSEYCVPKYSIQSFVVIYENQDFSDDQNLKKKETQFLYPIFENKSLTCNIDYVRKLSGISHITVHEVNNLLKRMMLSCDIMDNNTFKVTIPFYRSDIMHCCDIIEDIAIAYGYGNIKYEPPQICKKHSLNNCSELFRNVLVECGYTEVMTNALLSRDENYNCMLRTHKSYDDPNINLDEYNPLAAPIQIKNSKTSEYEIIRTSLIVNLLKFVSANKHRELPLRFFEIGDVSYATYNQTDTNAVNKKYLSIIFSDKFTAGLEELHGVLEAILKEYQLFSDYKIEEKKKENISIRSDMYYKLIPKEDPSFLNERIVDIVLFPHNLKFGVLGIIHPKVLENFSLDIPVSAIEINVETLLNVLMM
# Protocol: as §1
# [5] = 2 h, read-out: % Enzyme Activity
compound,measurement,setting,value
COC[C@@H]1[C@H](c2ccc(C#Cc3ccccc3)cc2)[C@@H]2CN(C(=O)Nc3ccc(OC4CC4)cc3)C[C@@H](O)[C@@H](O)CN12 [BRD1389],IC50,[1],1 µM
same,remaining activity at 1 pM,[1]; [5],100%
same,remaining activity at 0.0001 µM,[1]; [5],99.5%
same,remaining activity at 0.001 µM,[1]; [5],98%
same,remaining activity at 0.01 µM,[1]; [5],95.2%
same,remaining activity at 0.1 µM,[1]; [5],75.4%
same,remaining activity at 1 µM,[1]; [5],55.3%
same,remaining activity at 10 µM,[1]; [5],18.8%
same,remaining activity at 100 µM,[1]; [5],0%
same,remaining activity at 1 pM,[2]; [5],100%
same,IC50,[2]; Pv cFRS aminoacylation activity,0.025 ± 0.001 µM
same,remaining activity at 0.0001 µM,"[2]; PvcFRS, BRD1389 0.0001 uM",95.4%
same,remaining activity at 0.001 µM,"[2]; PvcFRS, BRD1389 0.001 uM",86.2%
same,remaining activity at 0.01 µM,"[2]; PvcFRS, BRD1389 0.01 uM",60.7%
same,remaining activity at 0.1 µM,"[2]; PvcFRS, BRD1389 0.1 uM",20.7%
same,remaining activity at 1 µM,"[2]; PvcFRS, BRD1389 1 uM",8.61%
same,remaining activity at 10 µM,"[2]; PvcFRS, BRD1389 10 uM",2.17%
same,remaining activity at 100 µM,"[2]; PvcFRS, BRD1389 100 uM",0%
same,IC50,[3]; Hs cFRS aminoacylation activity,12 µM
same,remaining activity at 0.0001 µM,"[3]; HscFRS, BRD1389 0.0001 uM",99.6%
same,remaining activity at 0.001 µM,"[3]; HscFRS, BRD1389 0.001 uM",100%
same,remaining activity at 0.01 µM,"[3]; HscFRS, BRD1389 0.01 uM",99.7%
same,remaining activity at 0.1 µM,"[3]; HscFRS, BRD1389 0.1 uM",90.2%
same,remaining activity at 1 µM,"[3]; HscFRS, BRD1389 1 uM",85%
same,remaining activity at 10 µM,"[3]; HscFRS, BRD1389 10 uM",49.5%
same,remaining activity at 100 µM,"[3]; HscFRS, BRD1389 100 uM",20%
same,remaining activity at 1 pM,[4]; [5],100%
same,remaining activity at 0.0001 µM,"[4]; 2 h, PfcFRS, BRD1389 0.0001 uM",98.4%
same,remaining activity at 0.001 µM,"[4]; 2 h, PfcFRS, BRD1389 0.001 uM",85.2%
same,remaining activity at 0.01 µM,"[4]; 2 h, PfcFRS, BRD1389 0.01 uM",46.7%
same,remaining activity at 0.1 µM,"[4]; 2 h, PfcFRS, BRD1389 0.1 uM",9.72%
same,remaining activity at 1 µM,"[4]; 2 h, PfcFRS, BRD1389 1 uM",4.61%
same,remaining activity at 10 µM,"[4]; 2 h, PfcFRS, BRD1389 10 uM",1.17%
same,remaining activity at 100 µM,"[4]; 2 h, PfcFRS, BRD1389 100 uM",0%
same,IC50,[4]; Pf cFRS aminoacylation activity,0.012 ± 0.0008 µM
